Species on record: Rattus norvegicus
Test: Open TG-GATES - Regimen: Daily Repeat
Format: toxicity, organism-based, Sprague-Dawley
Design: regimen Daily Repeat, gender Male, age 6 weeks
Settings: in vivo, po, 100 mg/kg, route gavage, dose level Middle; for APTT / Bas / Eos / Fbg / Hb / Ht / Lym / MCH / MCHC / MCV / Mono / Neu / PT / Plat / RBC / Ret / WBC: tissue Blood; for KIDNEY_L / KIDNEY_R / KIDNEY_TOTAL: tissue Kidney; for LIVER: tissue Liver; for ALP / ALT / AST / BUN / CRE / DBIL / GLC / IP / K / LDH / Na / PL / RALB / TBIL / TC / TG / TP / gamma-GTP: tissue Plasma

Clc1ccccc1CN1CCc2sccc2C1 [TICLOPIDINE]
TERMINAL_BW (72 h, time 3 day): 224.9 g
APTT (72 h, time 3 day): 21.3 s
Bas (72 h, time 3 day): 1%
Eos (72 h, time 3 day): 1%
Fbg (72 h, time 3 day): 224 mg/dL
Hb (72 h, time 3 day): 13.4 g/dL
Ht (72 h, time 3 day): 37.8%
Lym (72 h, time 3 day): 80.6%
MCH (72 h, time 3 day): 21.5 pg
MCHC (72 h, time 3 day): 35.5%
MCV (72 h, time 3 day): 60.4 fL
Mono (72 h, time 3 day): 2.6%
Neu (72 h, time 3 day): 14.6%
PT (72 h, time 3 day): 11.3 s
Plat (72 h, time 3 day): 125.6 x10_4/uL
RBC (72 h, time 3 day): 626.4 x10_4/ul
Ret (72 h, time 3 day): 5.6%
WBC (72 h, time 3 day): 100.7 x10_2/uL
KIDNEY_L (72 h, time 3 day): 1 g
KIDNEY_R (72 h, time 3 day): 1 g
KIDNEY_TOTAL (72 h, time 3 day): 1.9 g
LIVER (72 h, time 3 day): 11.8 g
ALP (72 h, time 3 day): 968 IU/L
ALT (72 h, time 3 day): 38.2 IU/L
AST (72 h, time 3 day): 65.8 IU/L
BUN (72 h, time 3 day): 15.4 mg/dL
CRE (72 h, time 3 day): 0.4 mg/dL
DBIL (72 h, time 3 day): 0.07 mg/dL
GLC (72 h, time 3 day): 195.6 mg/dL
IP (72 h, time 3 day): 7.3 mg/dL
K (72 h, time 3 day): 4 meq/L
LDH (72 h, time 3 day): 152.8 IU/L
Na (72 h, time 3 day): 142.2 meq/L
PL (72 h, time 3 day): 162.6 mg/dL
RALB (72 h, time 3 day): 3.3 g/dL
TBIL (72 h, time 3 day): 0.1 mg/dL
TC (72 h, time 3 day): 89.8 mg/dL
TG (72 h, time 3 day): 69.8 mg/dL
TP (72 h, time 3 day): 5.5 g/dL
gamma-GTP (72 h, time 3 day): 0.8 IU/L
TERMINAL_BW ([…], time 7 day): 258 g
TERMINAL_BW ([…], time 14 day): 306.1 g
TERMINAL_BW ([…], time 28 day): 394.5 g
APTT ([…], time 7 day): 22.3 s
Bas ([…], time 7 day): 0.6%
Eos ([…], time 7 day): 0.8%
Fbg ([…], time 7 day): 227.4 mg/dL
Hb ([…], time 7 day): 13.6 g/dL
Ht ([…], time 7 day): 38.2%
MCH ([…], time 7 day): 21.4 pg
MCHC ([…], time 7 day): 35.5%
MCV ([…], time 7 day): 60.4 fL
Mono ([…], time 7 day): 2.6%
Neu ([…], time 7 day): 13%
PT ([…], time 7 day): 11.6 s
Plat ([…], time 7 day): 123.7 x10_4/uL
RBC ([…], time 7 day): 633.2 x10_4/ul
Ret ([…], time 7 day): 5.4%
WBC ([…], time 7 day): 117.5 x10_2/uL
APTT ([…], time 14 day): 19.9 s
Bas ([…], time 14 day): 0.8%
Eos ([…], time 14 day): 0.8%
Fbg ([…], time 14 day): 220.4 mg/dL
Hb ([…], time 14 day): 14.5 g/dL
Ht ([…], time 14 day): 40.6%
Lym ([…], time 14 day): 80.6%
MCH ([…], time 14 day): 21.3 pg
MCHC ([…], time 14 day): 35.7%
MCV ([…], time 14 day): 59.6 fL
Mono ([…], time 14 day): 2.2%
Neu ([…], time 14 day): 15.4%
PT ([…], time 14 day): 11.8 s
Plat ([…], time 14 day): 114.3 x10_4/uL
RBC ([…], time 14 day): 681 x10_4/ul
Ret ([…], time 14 day): 4.3%
WBC ([…], time 14 day): 108.6 x10_2/uL
APTT ([…], time 28 day): 18.7 s
Bas ([…], time 28 day): 1%
Eos ([…], time 28 day): 0.8%
Fbg ([…], time 28 day): 219.8 mg/dL
Hb ([…], time 28 day): 15.3 g/dL
Ht ([…], time 28 day): 41.1%
Lym ([…], time 28 day): 81.6%
MCH ([…], time 28 day): 20 pg
MCHC ([…], time 28 day): 37.4%
MCV ([…], time 28 day): 53.4 fL
Mono ([…], time 28 day): 2.2%
Neu ([…], time 28 day): 13.6%
PT ([…], time 28 day): 11.6 s
Plat ([…], time 28 day): 114.7 x10_4/uL
RBC ([…], time 28 day): 770 x10_4/ul
Ret ([…], time 28 day): 3%
WBC ([…], time 28 day): 136.4 x10_2/uL
KIDNEY_L ([…], time 7 day): 1.2 g
KIDNEY_R ([…], time 7 day): 1.2 g
KIDNEY_TOTAL ([…], time 7 day): 2.3 g
KIDNEY_L ([…], time 14 day): 1.2 g
KIDNEY_R ([…], time 14 day): 1.2 g
KIDNEY_TOTAL ([…], time 14 day): 2.5 g
KIDNEY_L ([…], time 28 day): 1.5 g
KIDNEY_R ([…], time 28 day): 1.5 g
KIDNEY_TOTAL ([…], time 28 day): 3 g
LIVER ([…], time 7 day): 13 g
LIVER ([…], time 14 day): 14.1 g
LIVER ([…], time 28 day): 17.9 g
ALP ([…], time 7 day): 969.2 IU/L
ALT ([…], time 7 day): 39.4 IU/L
AST ([…], time 7 day): 73.2 IU/L
BUN ([…], time 7 day): 14.8 mg/dL
CRE ([…], time 7 day): 0.4 mg/dL
DBIL ([…], time 7 day): 0.068 mg/dL
GLC ([…], time 7 day): 192.6 mg/dL
IP ([…], time 7 day): 7.2 mg/dL
K ([…], time 7 day): 3.9 meq/L
LDH ([…], time 7 day): 144.8 IU/L
Na ([…], time 7 day): 142.4 meq/L
PL ([…], time 7 day): 145.4 mg/dL
RALB ([…], time 7 day): 3.5 g/dL
TBIL ([…], time 7 day): 0.1 mg/dL
TC ([…], time 7 day): 74.8 mg/dL
TG ([…], time 7 day): 68.2 mg/dL
TP ([…], time 7 day): 5.7 g/dL
gamma-GTP ([…], time 7 day): 0.8 IU/L
ALP ([…], time 14 day): 792.6 IU/L
ALT ([…], time 14 day): 36.6 IU/L
AST ([…], time 14 day): 68.8 IU/L
BUN ([…], time 14 day): 15.8 mg/dL
CRE ([…], time 14 day): 0.4 mg/dL
DBIL ([…], time 14 day): 0.06 mg/dL
GLC ([…], time 14 day): 205 mg/dL
IP ([…], time 14 day): 7.5 mg/dL
K ([…], time 14 day): 3.8 meq/L
LDH ([…], time 14 day): 161.8 IU/L
Na ([…], time 14 day): 143.4 meq/L
PL ([…], time 14 day): 152.2 mg/dL
RALB ([…], time 14 day): 3.4 g/dL
TBIL ([…], time 14 day): 0.098 mg/dL
TC ([…], time 14 day): 78.8 mg/dL
TG ([…], time 14 day): 94.2 mg/dL
TP ([…], time 14 day): 5.7 g/dL
gamma-GTP ([…], time 14 day): 1 IU/L
ALP ([…], time 28 day): 625.8 IU/L
ALT ([…], time 28 day): 44 IU/L
AST ([…], time 28 day): 71.6 IU/L
BUN ([…], time 28 day): 17.6 mg/dL
CRE ([…], time 28 day): 0.5 mg/dL
DBIL ([…], time 28 day): 0.072 mg/dL
GLC ([…], time 28 day): 202.8 mg/dL
IP ([…], time 28 day): 7.5 mg/dL
K ([…], time 28 day): 3.8 meq/L
LDH ([…], time 28 day): 152.4 IU/L
Na ([…], time 28 day): 142.2 meq/L
PL ([…], time 28 day): 154.8 mg/dL
RALB ([…], time 28 day): 3.6 g/dL
TBIL ([…], time 28 day): 0.1 mg/dL
TC ([…], time 28 day): 76.8 mg/dL
TG ([…], time 28 day): 82.8 mg/dL
TP ([…], time 28 day): 6.3 g/dL
gamma-GTP ([…], time 28 day): 0.8 IU/L

Reference: ChEMBL document CHEMBL3885861, “Open TG-GATES”
